According to ChEMBL document CHEMBL4130613, “Identification and Proposed Relative and Absolute Configurations of Niphimycins C-E from the Marine-Derived Streptomyces sp. IMB7-145 by Genomic Analysis” (J Nat Prod, 2018):
Converted amounts (≈) assume the structure as drawn.

What was measured:
Type in all cases: functional
[1] = tested on: Mycobacterium tuberculosis; assay: Antibacterial activity against isonizaid/rifampicin/streptomycin/ethambutol-resistant Mycobacterium tuberculosis isolate FJ05195 after 18 hrs by agar dilution method; conditions: isolate FJ05195, 18 h
[2] = tested on: Mycobacterium tuberculosis; assay: Antibacterial activity against isonizaid/rifampicin/streptomycin/ethambutol-resistant Mycobacterium tuberculosis isolate FJ05436 after 18 hrs by agar dilution method; conditions: isolate FJ05436, 18 h
[3] = tested on: Mycobacterium tuberculosis; assay: Antibacterial activity against isonizaid/rifampicin-resistant Mycobacterium tuberculosis isolate FJ05120 after 18 hrs by agar dilution method; conditions: isolate FJ05120, 18 h

| Structure (SMILES) | MIC [1] | MIC [2] | MIC [3] |
| --- | --- | --- | --- |
| CNC(=N)NCCC/C=C/CCC[C@H](C)C[C@H](C)[C@H]1OC(=O)[C@H](C)[C@H](O)/C=C/[C@H](C)[C@H](O)C[C@H](O)[C@H](C)[C@@H](O)CC[C@H](C)[C@H](O)C[C@]2(O)O[C@H](C[C@@H](OC(=O)CC(=O)O)C[C@H](O)C[C@@H](O)[C@H](C)[C@H](O)/C=C/C=C/[C@@H]1C)C[C@H](O)[C@H]2O | 4 to 32 µg/mL (≈ 3.5 to 28 µM) | 4 to 32 µg/mL (≈ 3.5 to 28 µM) | 4 to 16 µg/mL (≈ 3.5 to 14 µM) |
| CNC(=N)NCCC/C=C/CCC[C@H](C)C[C@H](C)[C@H]1OC(=O)[C@H](C)[C@H](O)/C=C/[C@H](C)[C@H](O)C[C@H](O)[C@H](C)[C@@H](O)CC[C@H](C)[C@H](O)C[C@]2(O)O[C@H](C[C@@H](O)C[C@H](OC(=O)CC(=O)O)C[C@@H](O)[C@H](C)[C@H](O)/C=C/C=C/[C@@H]1C)C[C@H](O)[C@H]2O | 4 to 32 µg/mL (≈ 3.5 to 28 µM) | 4 to 32 µg/mL (≈ 3.5 to 28 µM) | 4 to 16 µg/mL (≈ 3.5 to 14 µM) |
